In US20220361500A1, “STRIGOLACTONE DERIVATIVES AS PLANT GROWTH REGULATOR COMPOUNDS” (SYNGENTA CROP PROTECTION AG, priority 2020, published 2022):

system: corn leaf discs (variety Multitop); test: Dark induced senescence of corn leaf; conditions: Zea mays, foliar, 192 h, 100 μM-0.0001 μM, 0.5% DMSO, 23° C., 8 days, image analysis, read-out: IC50 (concentration at which 50% senescence was achieved), dark induced senescence of corn leaf
Experimental: It is known that strigolactones regulate (accelerate) leaf senescence, potentially through D14 receptor signaling. Corn plants of variety Multitop were grown in a greenhouse with relative 75% humidity and at 23-25° C. for 6 weeks. 1.4 cm diameter leaf discs were placed into 24-well plates containing test compounds in a concentration gradient (100 μM-0.0001 μM) at a final concentration of 0.5% DMSO. Each concentration was tested in 12 replicates. Plates were sealed with seal foil. The foil was pierced to provide gas exchange in each well. The plates were placed into the completely dark climatic chamber. Plates were incubated in the chamber with 75% humidity and at 23° C. for 8 days. On days 0, 5, 6, 7 and 8 photographs were taken of each plate, and image analysis conducted with a macro developed using the ImageJ software. The image analysis was used to determine the concentration at which 50% senescence was achieved (IC50), see Table 4. The lower the value, the higher senescence induction potency.

IC50 [nM] | Compound
40 | CC1=C(C)C(O/C=C2/C(=O)OC3Sc4ccccc4C23)OC1=O (centres unmarked) [Compound I-8, (1E)-1-[(3,4-dimethyl-5-oxo-2H-furan-2-yl)oxymethylene]-3a,8b-dihydrobenzothiopheno[2,3-b]furan-2-one]
15 | CC1=CC(O/C=C2/C(=O)OC3C2c2ccccc2[S+]3[O-])OC1=O (centres unmarked) [Compound I-13, (1E)-1-[(4-methyl-5-oxo-2H-furan-2-yl)oxymethylene]-4-oxo-3a,8b-dihydrobenzothiopheno[2,3-b]furan-2-one]
30 | CC1=CC(O/C=C2/C(=O)OC3COc4ccccc4C23)OC1=O (centres unmarked) [Compound I-31, (1E)-1-[(4-methyl-5-oxo-2H-furan-2-yl)oxymethylene]-4,9b-dihydro-3aH-furo[2,3-c]chromen-2-one]

The next lines start with the compound.

Compound | IC50 [nM]
CC1=CC(O/C=C2/C(=O)OC3Oc4ccccc4C23)OC1=O (centres unmarked) [Compound I-1, (1E)-1-[(4-methyl-5-oxo-2H-furan-2-yl)oxymethylene]-3a,8b-dihydrofuro[2,3-b]benzofuran-2-one] | 30
CC1=C(C)C(O/C=C2/C(=O)OC3Oc4ccccc4C23)OC1=O (centres unmarked) [Compound I-2, (1E)-1-[(3,4-dimethyl-5-oxo-2H-furan-2-yl)oxymethylene]-3a,8b-dihydrofuro[2,3-b]benzofuran-2-one] | 15
